How the values were obtained:
FIG. 75 = test: FIG. 75
From the text: Table printed on a drawing sheet, FIG. 75
First reader's note: Each body row is one statistic (N, Mean, SD, quartiles, range) of the plasma concentration for one dose group, so N rows are subject counts and SD rows are errors; the dose group name is printed only on the N row and is repeated here for its group.

FIG. 167 = test: FIG. 167
From the text: Table printed on a drawing sheet, FIG. 167
First reader's note: Units stand in the cells; each column is one drug and the rows are its properties.

[1] = literature (Struthers et al. 2009); cited from earlier work

From the text for FIG. 73: First reader's note: Each row is one summary statistic (N, mean, SD, quartiles, range) of the plasma concentration for one dose group; the N rows are subject counts, not ng/mL, and the columns are visit/sampling times.

For CONC(=O)Nc1ccc(-c2sc3c(c2CN(C)C)c(=O)n(-c2ccc(OC)nn2)c(=O)n3Cc2c(F)cccc2F)cc1 [Compound 1 10 mg], the “Visit | Week 0: 0.5-[…]” value (FIG. 73) was 0.5290 ng/mL, the “Visit | Week 0: 2-5hr” value (FIG. 73) was 0.5641 ng/mL and the “Visit | Week 2: 2-5hr” value (FIG. 73) was 0.8025 ng/mL. The “Visit | Week 2: Predose” value (FIG. 73) was 0.3100 ng/mL, the “Visit | Week 4: 2-5hr” value (FIG. 73) was 0.9672 ng/mL and the “Visit | Week 4: Predose” value (FIG. 73) was 0.2670 ng/mL. The “Visit | Week 8: 0.5-[…]” value (FIG. 73) was 1.324 ng/mL, the “Visit | Week 8: 2-5hr” value (FIG. 73) was 0.8301 ng/mL and the “Visit | Week 8: Predose” value (FIG. 73) was 0.3406 ng/mL. The “Visit | Week 12” value (FIG. 73) was 0.2783 ng/mL, the “Visit | Week 16: Predose” value (FIG. 73) was 0.3251 ng/mL and the “Visit | Week 20: Predose” value (FIG. 73) was 0.3138 ng/mL. The “Visit | Week 24” value (FIG. 73) was 0.2811 ng/mL, the “Visit | Week 2: 0.5-[…]” value (FIG. 75) was 0.9860 ng/mL and the “Visit | Week 2: 2-5hr” value (FIG. 75) was 0.8280 ng/mL. The “Visit | Week 2: Predose” value (FIG. 75) was 0.0898 ng/mL, the “Visit | Week 4: 0.5-[…]” value (FIG. 75) was 0.9140 ng/mL and the “Visit | Week 4: 2-5hr” value (FIG. 75) was 0.3720 ng/mL. For the same compound, the “Visit | Week 4: Predose” value (FIG. 75) was 0.1880 ng/mL, the “Visit | Week 8: 0.5-[…]” value (FIG. 75) was 2.192 ng/mL and the “Visit | Week 8: 2-5hr” value (FIG. 75) was 1.320 ng/mL. The “Visit | Week 12” value (FIG. 75) was 0.8620 ng/mL and the “Visit | Week 16: Predose” value (FIG. 75) was 0.1500 ng/mL.

For CONC(=O)Nc1ccc(-c2sc3c(c2CN(C)C)c(=O)n(-c2ccc(OC)nn2)c(=O)n3Cc2c(F)cccc2F)cc1 [Compound 1 20 mg], the “Visit | Week 0: 0.5-[…]” value (FIG. 73) was 2.784 ng/mL, the “Visit | Week 0: 2-5hr” value (FIG. 73) was 2.154 ng/mL and the “Visit | Week 2: 0.5-[…]” value (FIG. 73) was 2.912 ng/mL. For the same compound, the “Visit | Week 2: 2-5hr” value (FIG. 73) was 2.981 ng/mL, the “Visit | Week 2: Predose” value (FIG. 73) was 0.8002 ng/mL and the “Visit | Week 4: 0.5-[…]” value (FIG. 73) was 3.515 ng/mL. For the same compound, the “Visit | Week 4: 2-5hr” value (FIG. 73) was 3.567 ng/mL, the “Visit | Week 4: Predose” value (FIG. 73) was 0.6640 ng/mL and the “Visit | Week 8: 0.5-[…]” value (FIG. 73) was 3.437 ng/mL. For the same compound, the “Visit | Week 8: 2-5hr” value (FIG. 73) was 2.643 ng/mL, the “Visit | Week 8: Predose” value (FIG. 73) was 0.8032 ng/mL and the “Visit | Week 12” value (FIG. 73) was 0.6904 ng/mL. The “Visit | Week 16: Predose” value (FIG. 73) was 0.6280 ng/mL, the “Visit | Week 20: Predose” value (FIG. 73) was 0.7132 ng/mL and the “Visit | Week 24” value (FIG. 73) was 0.6712 ng/mL. The “Visit | Week 0: 0.5-[…]” value (FIG. 75) was 7.570 ng/mL, the “Visit | Week 2: Predose” value (FIG. 75) was 0.8990 ng/mL and the “Visit | Week 4: Predose” value (FIG. 75) was 0.3880 ng/mL. The “Visit | Week 8: Predose” value (FIG. 75) was 0.3380 ng/mL, the “Visit | Week 12” value (FIG. 75) was 0.8320 ng/mL and the “Visit | Week 24” value (FIG. 75) was 0.7470 ng/mL.

For CONC(=O)Nc1ccc(-c2sc3c(c2CN(C)C)c(=O)n(-c2ccc(OC)nn2)c(=O)n3Cc2c(F)cccc2F)cc1 [Compound 1 40 mg], the “Visit | Week 0: 0.5-[…]” value (FIG. 73) was 7.424 ng/mL, the “Visit | Week 0: 2-5hr” value (FIG. 73) was 7.680 ng/mL and the “Visit | Week 2: 0.5-[…]” value (FIG. 73) was 9.210 ng/mL. For the same compound, the “Visit | Week 2: 2-5hr” value (FIG. 73) was 7.550 ng/mL, the “Visit | Week 2: Predose” value (FIG. 73) was 2.383 ng/mL and the “Visit | Week 4: 0.5-[…]” value (FIG. 73) was 11.61 ng/mL. The “Visit | Week 4: 2-5hr” value (FIG. 73) was 8.479 ng/mL, the “Visit | Week 4: Predose” value (FIG. 73) was 2.315 ng/mL and the “Visit | Week 8: 0.5-[…]” value (FIG. 73) was 10.29 ng/mL. For the same compound, the “Visit | Week 8: 2-5hr” value (FIG. 73) was 11.20 ng/mL, the “Visit | Week 8: Predose” value (FIG. 73) was 2.233 ng/mL and the “Visit | Week 12” value (FIG. 73) was 1.987 ng/mL. For the same compound, the “Visit | Week 16: Predose” value (FIG. 73) was 1.995 ng/mL, the “Visit | Week 20: Predose” value (FIG. 73) was 2.240 ng/mL and the “Visit | Week 24” value (FIG. 73) was 1.908 ng/mL. For the same compound, the “Visit | Week 8: Predose” value (FIG. 75) was 3.580 ng/mL and the “Visit | Week 12” value (FIG. 75) was 1.520 ng/mL.

In the case of COc1cccc(-c2c(C)n(Cc3c(F)cccc3C(F)(F)F)c(=O)n(C[C@H](NCCCC(=O)O)c3ccccc3)c2=O)c1F [Elagolix^2], the “Observed Half-life” value (FIG. 167) is reported as 2 to 6 h.

For CONC(=O)Nc1ccc(-c2sc3c(c2CN(C)C)c(=O)n(-c2ccc(OC)nn2)c(=O)n3Cc2c(F)cccc2F)cc1 [Relugolix^1], the “Observed Half-life” value (FIG. 167) was 37 to 42 h.

For COc1cccc(-c2c(C)n(Cc3c(F)cccc3C(F)(F)F)c(=O)n(C[C@H](NCCCC(=O)O)c3ccccc3)c2=O)c1F [elagolix], the half-life [1] is given as 2.4 to 6.3 h.
